From PMC5430744 (Scientific Reports, 2017)
Where two headings read alike, the source gives them in different places.

What was measured:
[1] = biological target: T1, Smon0121-Smon0122(10xHis)/Smon0120-Smon0120 (Streptobacillus moniliformis, UniProt D1AWD7); settings: detergent-solubilised transporter
T1 construct: gene Smon_0120

[2] = biological target: T2, Smon0127 (Streptobacillus moniliformis, UniProt D1AWE4); test: UGL enzyme assay, decrease of absorbance at […] nm; type: biochemical
T2 construct: gene Smon_0127; recombinant Smon0127
T2 sequence (D1AWE4 entry or part of it): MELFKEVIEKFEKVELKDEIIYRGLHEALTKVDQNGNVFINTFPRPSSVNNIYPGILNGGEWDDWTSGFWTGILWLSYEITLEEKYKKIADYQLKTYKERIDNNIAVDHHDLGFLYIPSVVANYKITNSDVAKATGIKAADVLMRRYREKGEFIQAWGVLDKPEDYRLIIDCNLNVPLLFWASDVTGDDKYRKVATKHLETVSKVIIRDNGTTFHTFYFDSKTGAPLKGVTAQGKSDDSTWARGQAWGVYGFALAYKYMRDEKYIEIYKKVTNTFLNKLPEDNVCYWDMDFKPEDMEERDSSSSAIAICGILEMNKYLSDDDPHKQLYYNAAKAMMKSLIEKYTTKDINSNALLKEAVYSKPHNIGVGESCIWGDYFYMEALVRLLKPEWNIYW

[3] = biological target: Smon0123 (Streptobacillus moniliformis, UniProt D1AWE0); test: X-ray crystal structure; tryptophan fluorescence titration; DSF; type: binding; design: gene Smon_0123; Smon0123 (N-18/C-5) in the crystal; recombinant Smon0123 in solution
Smon0123, sequence (D1AWE0 entry or part of it): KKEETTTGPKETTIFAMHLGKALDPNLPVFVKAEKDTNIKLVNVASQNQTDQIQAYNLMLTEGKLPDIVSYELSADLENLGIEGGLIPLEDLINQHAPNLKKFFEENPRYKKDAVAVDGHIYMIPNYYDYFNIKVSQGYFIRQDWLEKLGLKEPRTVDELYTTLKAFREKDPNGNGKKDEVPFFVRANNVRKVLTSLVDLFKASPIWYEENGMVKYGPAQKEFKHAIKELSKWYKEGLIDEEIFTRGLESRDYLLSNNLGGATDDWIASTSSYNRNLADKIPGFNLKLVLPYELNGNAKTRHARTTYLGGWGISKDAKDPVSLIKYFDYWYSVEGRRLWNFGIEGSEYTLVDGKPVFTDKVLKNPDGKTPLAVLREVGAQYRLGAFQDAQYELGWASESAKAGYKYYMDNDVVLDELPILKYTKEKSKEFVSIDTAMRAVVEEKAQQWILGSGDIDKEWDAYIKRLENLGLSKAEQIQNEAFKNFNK

T1 sequence (D1AWD7 entry or part of it): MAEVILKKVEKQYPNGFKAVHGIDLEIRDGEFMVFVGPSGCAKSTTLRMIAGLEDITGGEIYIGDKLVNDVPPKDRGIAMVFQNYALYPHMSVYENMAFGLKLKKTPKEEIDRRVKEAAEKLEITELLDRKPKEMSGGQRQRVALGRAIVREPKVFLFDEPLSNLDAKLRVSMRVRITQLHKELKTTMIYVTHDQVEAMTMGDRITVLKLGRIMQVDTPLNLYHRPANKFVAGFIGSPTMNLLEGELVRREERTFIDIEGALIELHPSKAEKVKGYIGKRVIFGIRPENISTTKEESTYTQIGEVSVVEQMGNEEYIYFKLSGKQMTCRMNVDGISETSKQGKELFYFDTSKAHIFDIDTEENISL
T1 sequence (D1AWD8 entry or part of it, further chain): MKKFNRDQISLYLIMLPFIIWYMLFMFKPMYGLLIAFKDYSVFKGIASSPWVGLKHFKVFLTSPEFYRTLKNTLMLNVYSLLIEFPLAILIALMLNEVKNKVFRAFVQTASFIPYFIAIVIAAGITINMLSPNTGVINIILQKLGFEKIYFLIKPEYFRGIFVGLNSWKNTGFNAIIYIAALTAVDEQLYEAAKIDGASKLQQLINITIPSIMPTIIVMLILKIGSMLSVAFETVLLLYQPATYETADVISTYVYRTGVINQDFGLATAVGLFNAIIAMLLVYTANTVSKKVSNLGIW
T1 sequence (D1AWD9 entry or part of it, further chain): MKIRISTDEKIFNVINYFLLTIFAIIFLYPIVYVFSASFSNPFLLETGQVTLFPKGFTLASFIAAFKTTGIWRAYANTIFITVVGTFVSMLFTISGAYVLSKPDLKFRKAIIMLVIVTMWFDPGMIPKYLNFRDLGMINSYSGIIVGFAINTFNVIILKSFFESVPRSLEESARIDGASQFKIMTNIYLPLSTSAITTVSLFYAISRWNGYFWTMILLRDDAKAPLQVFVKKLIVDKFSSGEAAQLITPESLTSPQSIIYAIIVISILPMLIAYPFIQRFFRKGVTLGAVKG

Structure (SMILES) | phosphate release from ATP [1] | UGL enzyme assay, decrease of absorbance at 235 nm [2] [units/mg] | Kd [3] | Kd ([3]; read-out: Kd) [nM]
Nc1ncnc2c1ncn2[C@@H]1O[C@H](COP(=O)(O)OP(=O)(O)OP(=O)(O)O)[C@@H](O)[C@H]1O [ATP] | in the soluble form with detergents exhibited ATPase activity |  |  | 
CC(=O)N[C@H]1C(O)O[C@H](COS(=O)(=O)O)[C@H](O)[C@@H]1O[C@@H]1OC(C(=O)O)=C[C@H](O)[C@H]1O (stereo partly shown) [CΔ6S] |  | 0.272 | 5GX6 for Smon0123/C∆4S, 5GX7 for Smon0123/C∆6S | 
CC(=O)N[C@H]1C(O)O[C@H](CO)[C@@H](O)[C@@H]1O[C@@H]1OC(C(=O)O)=C[C@H](O)[C@H]1O (stereo partly shown) [ΔHA] |  | 2.26 |  | 
CC(=O)N[C@H]1C(O)O[C@H](CO)[C@H](O)[C@@H]1O[C@@H]1OC(C(=O)O)=C[C@H](O)[C@H]1O (stereo partly shown) [CΔ0S] |  | 4.46 |  | 635 ± 122
CC(=O)N[C@H]1C(O)O[C@H](CO)[C@H](OS(=O)(=O)O)[C@@H]1O[C@@H]1OC(C(=O)O)=C[C@H](O)[C@H]1O (stereo partly shown) [CΔ4S] |  | 0.342 |  | 
